For one assay, the target named is T1, PKC epsilon (Homo sapiens, UniProt Q02156).
T1 construct: purchased Invitrogen P2282
T1 sequence (Q02156 1-737): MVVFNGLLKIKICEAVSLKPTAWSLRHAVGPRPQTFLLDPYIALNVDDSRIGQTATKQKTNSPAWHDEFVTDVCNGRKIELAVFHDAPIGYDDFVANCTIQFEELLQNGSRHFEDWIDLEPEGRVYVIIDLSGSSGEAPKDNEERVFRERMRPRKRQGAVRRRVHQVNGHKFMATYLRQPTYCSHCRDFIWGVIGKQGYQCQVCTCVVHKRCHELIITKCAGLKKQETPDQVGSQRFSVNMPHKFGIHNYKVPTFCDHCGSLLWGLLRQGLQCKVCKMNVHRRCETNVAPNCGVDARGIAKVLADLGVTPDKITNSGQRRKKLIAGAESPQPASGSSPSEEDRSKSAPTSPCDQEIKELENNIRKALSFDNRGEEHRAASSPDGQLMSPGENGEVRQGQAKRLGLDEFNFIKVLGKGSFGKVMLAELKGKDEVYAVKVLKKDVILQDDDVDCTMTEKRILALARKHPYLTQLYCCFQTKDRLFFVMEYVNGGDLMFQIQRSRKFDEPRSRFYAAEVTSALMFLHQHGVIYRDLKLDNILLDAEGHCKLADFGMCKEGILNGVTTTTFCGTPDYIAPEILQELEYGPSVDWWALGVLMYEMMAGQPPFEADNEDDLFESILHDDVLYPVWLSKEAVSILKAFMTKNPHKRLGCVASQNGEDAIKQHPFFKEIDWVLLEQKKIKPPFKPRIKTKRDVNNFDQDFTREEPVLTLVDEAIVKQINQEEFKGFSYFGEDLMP
The assay is described as follows: Biochemical assay for PKC epsilon (fluorescence polarization, Protein Kinase C Assay Kit, Red). The settings on record: read-out: IC50 μM PKCε. In short, it runs like this: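 PKC epsilon at 10 ng/ml final was preincubated 30 min at room temperature with compound in HEPES pH 7.4 with DTT and Triton X-100. ATP/protein substrate was then added in buffer with MgCl2 and CaCl2 for 80 min. The reaction was stopped with EDTA, phosphorylation was detected by fluorescence polarization with rhodamine tracer and anti-phosphoserine antibody, and IC50 values came from curve fits.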
A general note: Polarisation of emitted light reports the rotation of a fluorescent probe.

Another assay has as its target T2, human ROCKα/ROCKII mix (Homo sapiens, UniProt O75116).
T2 construct: purchased Upstate Biotechnology 14-451
Description: Biochemical assay for ROCK (fluorescence polarization, ROCK IMAP Kit).

T2 sequence (O75116 11-552 limits assumed): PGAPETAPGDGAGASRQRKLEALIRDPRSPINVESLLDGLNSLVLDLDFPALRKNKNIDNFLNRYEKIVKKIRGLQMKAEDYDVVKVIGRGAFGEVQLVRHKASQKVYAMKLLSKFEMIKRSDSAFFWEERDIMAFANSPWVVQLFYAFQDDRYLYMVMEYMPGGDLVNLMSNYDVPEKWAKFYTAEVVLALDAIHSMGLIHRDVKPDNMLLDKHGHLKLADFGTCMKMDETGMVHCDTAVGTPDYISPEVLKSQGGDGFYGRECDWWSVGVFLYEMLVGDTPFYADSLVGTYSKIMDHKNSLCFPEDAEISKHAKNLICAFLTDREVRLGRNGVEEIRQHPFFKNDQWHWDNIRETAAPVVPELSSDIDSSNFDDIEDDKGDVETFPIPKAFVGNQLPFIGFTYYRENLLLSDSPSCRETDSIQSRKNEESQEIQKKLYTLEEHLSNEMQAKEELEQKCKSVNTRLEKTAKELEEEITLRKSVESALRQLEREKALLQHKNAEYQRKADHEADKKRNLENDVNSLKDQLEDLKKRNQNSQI

A word on the IC50: it is the midpoint of a concentration-inhibition curve. Take `NC(c1ccc(C(=O)Nc2ccncc2)cc1)C1CCCN1C(=O)C1(c2ccc(F)c(F)c2)CCC1` (stereo not shown) [Compound 588, 4-(Amino-{1-[1-(3,4-difluoro-phenyl)-cyclobutanecarbonyl]-pyrrolidin-2-yl}-methyl)-N-pyridin-4-yl-benzamide]: the IC50 at PKC epsilon and against human ROCKα/ROCKII mix was 0.5 to 5 µM in each case.

For `NC(c1ccc(C(=O)Nc2ccncc2)cc1)C1CCCN1C(=O)C1(c2ccc(F)c(F)c2)CCCC1` (stereo not shown) [Compound 589, 4-(Amino-{1-[1-(3,4-difluoro-phenyl)-cyclopentanecarbonyl]-pyrrolidin-2-yl}-methyl)-N-pyridin-4-yl-benzamide], the IC50 on PKC epsilon and on human ROCKα/ROCKII mix was 0.5 to 5 µM each time.

As to `NC(c1ccc(C(=O)Nc2ccncc2)cc1)C1CCCN1C(=O)Cc1c(Cl)cccc1Cl` (stereo not shown) [Compound 590, 4-(Amino-{1-[2-(2,6-dichloro-phenyl)-acetyl]-pyrrolidin-2-yl}-methyl)-N-pyridin-4-yl-benzamide], the IC50 on PKC epsilon lay within 5 to 50 µM; against human ROCKα/ROCKII mix it was 0.5 to 5 µM.

As to `NC(c1ccc(C(=O)Nc2ccncc2)cc1)C1CCCN1C(=O)Cc1ccc(Cl)cc1Cl` (stereo not shown) [Compound 591, 4-(Amino-{1-[2-(2,4-dichloro-phenyl)-acetyl]-pyrrolidin-2-yl}-methyl)-N-pyridin-4-yl-benzamide], the IC50 at PKC epsilon was in the range of 5 to 50 µM; against human ROCKα/ROCKII mix, 0.5 to 5 µM.

Regarding `NC(c1ccc(C(=O)Nc2ccncc2)cc1)C1CCCN1C(=O)Cc1ccc(Cl)c(Cl)c1` (stereo not shown) [Compound 592, 4-(Amino-{1-[2-(3,4-dichloro-phenyl)-acetyl]-pyrrolidin-2-yl}-methyl)-N-pyridin-4-yl-benzamide], the IC50 on PKC epsilon and against human ROCKα/ROCKII mix was 0.5 to 5 µM each time.

Regarding `CC(C)(C(=O)N1CCCC1C(N)c1ccc(C(=O)Nc2ccncc2)cc1)c1ccc(Cl)c(Cl)c1` (stereo not shown) [Compound 593, 4-(Amino-{1-[2-(3,4-dichloro-phenyl)-2-methyl-propionyl]-pyrrolidin-2-yl}-methyl)-N-pyridin-4-yl-benzamide], the IC50 on PKC epsilon fell in the range of 5 to 50 µM; against human ROCKα/ROCKII mix it was 0.5 to 5 µM.

`NC(c1ccc(C(=O)Nc2ccncc2)cc1)C1CCCN1C(=O)C1(c2ccc(Cl)c(Cl)c2)CC1` (stereo not shown) [Compound 594, 4-(Amino-{1-[1-(3,4-dichloro-phenyl)-cyclopropanecarbonyl]-pyrrolidin-2-yl}-methyl)-N-pyridin-4-yl-benzamide]: the IC50 at PKC epsilon and against human ROCKα/ROCKII mix was 0.5 to 5 µM throughout.

With `NC(c1ccc(C(=O)Nc2ccncc2)cc1)C1CCCN1C(=O)C1(c2ccc(Cl)c(Cl)c2)CCC1` (stereo not shown) [Compound 595, 4-(Amino-{1-[1-(3,4-dichloro-phenyl)-cyclobutanecarbonyl]-pyrrolidin-2-yl}-methyl)-N-pyridin-4-yl-benzamide], the half-maximal inhibitory concentration (IC50) at PKC epsilon and at human ROCKα/ROCKII mix was 0.5 to 5 µM each time.

Consider `NC(c1ccc(C(=O)Nc2ccncc2)cc1)C1CCCN1C(=O)C1(c2ccc(Cl)cc2Cl)CC1` (stereo not shown) [Compound 596, 4-(Amino-{1-[1-(2,4-dichloro-phenyl)-cyclopropanecarbonyl]-pyrrolidin-2-yl}-methyl)-N-pyridin-4-yl-benzamide], for which the concentration for half-maximal inhibition (IC50) lay within 5 to 50 µM at PKC epsilon and 0.5 to 5 µM on human ROCKα/ROCKII mix.

Regarding `NC(c1ccc(C(=O)Nc2ccncc2)cc1)C1CCCN1C(=O)Cc1c(F)cccc1Cl` (stereo not shown) [Compound 597, 4-(Amino-{1-[2-(2-chloro-6-fluoro-phenyl)-acetyl]-pyrrolidin-2-yl}-methyl)-N-pyridin-4-yl-benzamide], the figures for the IC50 on PKC epsilon and on human ROCKα/ROCKII mix were 5 to 50 µM and 0.5 to 5 µM, respectively.

On to `NC(c1ccc(C(=O)Nc2ccncc2)cc1)C1CCCN1C(=O)Cc1ccc(Cl)cc1F` (stereo not shown) [Compound 598, 4-(Amino-{1-[2-(4-chloro-2-fluoro-phenyl)-acetyl]-pyrrolidin-2-yl}-methyl)-N-pyridin-4-yl-benzamide], for which the results for the IC50 on PKC epsilon and at human ROCKα/ROCKII mix were 5 to 50 µM and 0.5 to 5 µM, respectively.

In the case of `NC(c1ccc(C(=O)Nc2ccncc2)cc1)C1CCCN1C(=O)Cc1ccc(F)cc1Cl` (stereo not shown) [Compound 599, 4-(Amino-{1-[2-(2-chloro-4-fluoro-phenyl)-acetyl]-pyrrolidin-2-yl}-methyl)-N-pyridin-4-yl-benzamide], the IC50 on PKC epsilon and at human ROCKα/ROCKII mix was 0.5 to 5 µM each time.

On to `NC(c1ccc(C(=O)Nc2ccncc2)cc1)C1CCCN1C(=O)C1(c2ccc(F)cc2Cl)CC1` (stereo not shown) [Compound 600, 4-(Amino-{1-[1-(2-chloro-4-fluoro-phenyl)-cyclopropanecarbonyl]-pyrrolidin-2-yl}-methyl)-N-pyridin-4-yl-benzamide], for which the IC50 at PKC epsilon and at human ROCKα/ROCKII mix was 0.5 to 5 µM throughout.

Turning to `NC(c1ccc(C(=O)Nc2ccncc2)cc1)C1CCCN1C(=O)Cc1cccc(Cl)c1F` (stereo not shown) [Compound 602, 4-(Amino-{1-[2-(3-chloro-2-fluoro-phenyl)-acetyl]-pyrrolidin-2-yl}-methyl)-N-pyridin-4-yl-benzamide], the IC50 on PKC epsilon was in the range of 5 to 50 µM; against human ROCKα/ROCKII mix, 0.5 to 5 µM.

For `NC(c1ccc(C(=O)Nc2ccncc2)cc1)C1CCCN1C(=O)Cc1ccc(F)c(Cl)c1` (stereo not shown) [Compound 603, 4-(Amino-{1-[2-(3-chloro-4-fluoro-phenyl)-acetyl]-pyrrolidin-2-yl}-methyl)-N-pyridin-4-yl-benzamide], the IC50 at PKC epsilon was in the range of 0.5 to 5 µM; against human ROCKα/ROCKII mix, 0.05 to 0.5 µM.

In the case of `NC(c1ccc(C(=O)Nc2ccncc2)cc1)C1CCCN1C(=O)C1(c2ccc(Cl)cc2F)CC1` (stereo not shown) [Compound 605, 4-(Amino-{1-[1-(4-chloro-2-fluoro-phenyl)-cyclopropanecarbonyl]-pyrrolidin-2-yl}-methyl)-N-pyridin-4-yl-benzamide], the IC50 on PKC epsilon and against human ROCKα/ROCKII mix was 0.5 to 5 µM in each case.

Regarding `CC(C)(C(=O)N1CCCC1C(N)c1ccc(C(=O)Nc2ccncc2)cc1)c1ccc(F)c(Cl)c1` (stereo not shown) [Compound 606, 4-(Amino-{1-[2-(3-chloro-4-fluoro-phenyl)-2-methyl-propionyl]-pyrrolidin-2-yl}-methyl)-N-pyridin-4-yl-benzamide], the IC50 at PKC epsilon and on human ROCKα/ROCKII mix was 0.5 to 5 µM each time.

Turning to `NC(c1ccc(C(=O)Nc2ccncc2)cc1)C1CCCN1C(=O)C1(c2ccc(F)c(Cl)c2)CC1` (stereo not shown) [Compound 607, 4-(Amino-{1-[1-(3-chloro-4-fluoro-phenyl)-cyclopropanecarbonyl]-pyrrolidin-2-yl}-methyl)-N-pyridin-4-yl-benzamide], the IC50 at PKC epsilon and on human ROCKα/ROCKII mix was 0.5 to 5 µM each time.

Take `NC(c1ccc(C(=O)Nc2ccncc2)cc1)C1CCCN1C(=O)C1CCc2ccccc21` (stereo not shown) [Compound 608, 4-{Amino-[1-(indane-1-carbonyl)-pyrrolidin-2-yl]-methyl}-N-pyridin-4-yl-benzamide]: the IC50 at PKC epsilon and at human ROCKα/ROCKII mix was 0.5 to 5 µM each time.

As to `NC(c1ccc(C(=O)Nc2ccncc2)cc1)C1CCCN1C(=O)C1CC(=O)c2ccccc21` (stereo not shown) [Compound 609, 4-{Amino-[1-(3-oxo-indane-1-carbonyl)-pyrrolidin-2-yl]-methyl}-N-pyridin-4-yl-benzamide], the IC50 at PKC epsilon and on human ROCKα/ROCKII mix was 0.5 to 5 µM in each case.

`NC(c1ccc(C(=O)Nc2ccncc2)cc1)C1CCCN1C(=O)C1CCc2cc(F)ccc21` (stereo not shown) [Compound 610, 4-{Amino-[1-(5-fluoro-indane-1-carbonyl)-pyrrolidin-2-yl]-methyl}-N-pyridin-4-yl-benzamide]: the concentration for half-maximal inhibition (IC50) on PKC epsilon is 5 to 50 µM; against human ROCKα/ROCKII mix, 0.5 to 5 µM.

For `NC(c1ccc(C(=O)Nc2ccncc2)cc1)C1CCCN1C(=O)C1CCCc2ccccc21` (stereo not shown) [Compound 613, 4-{Amino-[1-(1,2,3,4-tetrahydro-naphthalene-1-carbonyl)-pyrrolidin-2-yl]-methyl}-N-pyridin-4-yl-benzamide], the IC50 at PKC epsilon and against human ROCKα/ROCKII mix was 0.5 to 5 µM each time.

Consider `NC(c1ccc(C(=O)Nc2ccncc2)cc1)C1CCCN1C(=O)C1CCOc2ccccc21` (stereo not shown) [Compound 615, 4-{Amino-[1-(chroman-4-carbonyl)-pyrrolidin-2-yl]-methyl}-N-pyridin-4-yl-benzamide], for which the results for the IC50 at PKC epsilon and against human ROCKα/ROCKII mix were 5 to 50 µM and 0.5 to 5 µM, respectively.

For `NC(c1ccc(C(=O)Nc2ccncc2)cc1)C1CCCN1C(=O)C1CCOc2ccc(Cl)cc21` (stereo not shown) [Compound 616, 4-{Amino[1-(6-chloro-chroman-4-carbonyl)-pyrrolidin-2-yl]-methyl}-N-pyridin-4-benzamide], the IC50 on PKC epsilon and on human ROCKα/ROCKII mix was 0.5 to 5 µM throughout.

In the case of `NC(c1ccc(C(=O)Nc2ccncc2)cc1)C1CCCN1C(=O)C1CCOc2ccc(F)cc21` (stereo not shown) [Compound 617, 4-{Amino[1-(6-fluoro-chroman-4-carbonyl)-pyrrolidin-2-yl]-methyl}-N-pyridin-4-benzamide], the IC50 on PKC epsilon and at human ROCKα/ROCKII mix was 0.5 to 5 µM in each case.

`NC(c1ccc(C(=O)Nc2ccncc2)cc1)C1CCCN1C(=O)C1CCSc2ccccc21` (stereo not shown) [Compound 618, 4-{Amino[1-(thiochroman-4-carbonyl)-pyrrolidin-2-yl]-methyl}-N-pyridin-4-yl-benzamide]: the IC50 on PKC epsilon and on human ROCKα/ROCKII mix was 0.5 to 5 µM each time.

Values taken from patent US20100168102A9, “Amide Derivatives as Kinase Inhibitors” (Devgen NV, priority 2005, published 2010).
